Assay results reported in patent publication US20200377481A1, “SUBSTITUTED 4-(1-PYRROLIDINYL)PYRIMIDINE COMPOUNDS AS DIMERIZATION INHIBITORS OF NEURONAL NITRIC OXIDE SYNTHASE” (Northwestern University, priority 2016, published 2020).

Assays:
nNOS = biological target: T1, nNOS (Rattus norvegicus, UniProt P29476); experiment: nNOS Dimerization Inhibition assay (Griess, Hek293 cells expressing rat nNOS); format: cell-based
T1 construct: expressed in transfected cells; host or cells: HEK293 (stably transduced, G418 selection)
Procedure: (§1) nNOS Dimerization Inhibition assay. Hek293 cells stably transduced to express rat nNOS were grown to confuency in DMEM supplemented with 10% FBS, pen/strep and 0.4 mg/mL G418. Cells were then plated into 96 well plates at 50,000 cells per well. After 12 h of growth a serial dilution of test compound was added with a vehicle control leaving one additional lane empty as a second activator control. Compounds and cells were allowed to interact for 48 h to allow for full degradation of undrugged active dimeric species. After 48 h […] of a 10 mM calcium ionophore stock was added. After 4 h, 50 uL of the media from each well was removed and mixed with 50 uL Griess Reagent 1 (Promega Griess assay kit). This mixture was incubated for 5 mins and then 50 uL Reagent 2 was added. The plate was read at 530 nm and an IC50 calculated.

iNOS = biological target: T2, iNOS (Mus musculus, UniProt P29477); experiment: iNOS Dimerization Inhibition assay (Griess, Raw 264.7 cells, LPS/IFN-γ); format: cell-based, murine
T2 construct: endogenous in cells; host or cells: Raw 264.7 cells stimulated with E. coli LPS and IFN-gamma
T2 sequence (P29477 1-1144): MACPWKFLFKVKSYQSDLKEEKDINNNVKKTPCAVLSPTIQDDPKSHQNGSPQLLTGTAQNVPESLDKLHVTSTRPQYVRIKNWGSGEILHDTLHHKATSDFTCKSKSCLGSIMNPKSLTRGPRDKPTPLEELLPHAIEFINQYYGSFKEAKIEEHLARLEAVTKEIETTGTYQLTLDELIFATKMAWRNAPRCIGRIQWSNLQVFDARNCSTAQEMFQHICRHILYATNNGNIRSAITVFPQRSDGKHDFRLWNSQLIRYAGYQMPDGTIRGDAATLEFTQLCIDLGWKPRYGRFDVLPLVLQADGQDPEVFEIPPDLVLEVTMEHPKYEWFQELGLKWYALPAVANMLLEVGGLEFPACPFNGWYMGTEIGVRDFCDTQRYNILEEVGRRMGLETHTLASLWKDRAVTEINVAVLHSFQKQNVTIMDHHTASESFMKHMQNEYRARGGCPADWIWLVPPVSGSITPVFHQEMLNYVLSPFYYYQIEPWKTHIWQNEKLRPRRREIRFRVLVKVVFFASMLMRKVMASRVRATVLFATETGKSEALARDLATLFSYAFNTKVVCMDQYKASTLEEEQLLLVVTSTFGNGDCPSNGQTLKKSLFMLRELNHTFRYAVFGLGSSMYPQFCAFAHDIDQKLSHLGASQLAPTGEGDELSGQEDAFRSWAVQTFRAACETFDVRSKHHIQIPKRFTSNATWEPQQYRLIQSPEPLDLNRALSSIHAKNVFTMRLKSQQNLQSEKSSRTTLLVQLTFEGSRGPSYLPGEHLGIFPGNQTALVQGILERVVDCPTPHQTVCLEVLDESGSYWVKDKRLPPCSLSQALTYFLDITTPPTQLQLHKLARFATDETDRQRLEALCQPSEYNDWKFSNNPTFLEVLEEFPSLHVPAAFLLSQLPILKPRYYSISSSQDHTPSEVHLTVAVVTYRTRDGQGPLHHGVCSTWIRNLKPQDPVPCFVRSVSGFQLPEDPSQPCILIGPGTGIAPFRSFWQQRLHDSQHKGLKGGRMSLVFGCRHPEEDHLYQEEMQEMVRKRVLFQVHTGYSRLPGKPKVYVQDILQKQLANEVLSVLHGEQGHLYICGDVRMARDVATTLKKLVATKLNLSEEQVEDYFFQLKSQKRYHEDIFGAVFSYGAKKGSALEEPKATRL
Procedure: iNOS Dimerization Inhibition assay. Raw 264.7 cells were grown to confuency in DMEM supplemented with 10% FBS and pen/strep. Cells were then plated into 96 well plates at 50,000 cells per well. After 12h of growth a serial dilution of test compound was added along with e.coli LPS (50 ug/ml final) and IFN-Y (500 ng/ml final) with a vehicle control. Compounds and cells were allowed to interact for 48 h to allow for full degradation of undrugged active dimeric species. After 48 h, 50 uL of the media from each well was removed and mixed with 50 uL Griess Reagent 1 (Promega Griess assay kit). This mixture was incubated for 5 mins and then 50 uL Reagent 2 was added. The plate was read at 530 nm and an IC50 calculated.

eNOS = biological target: T3, eNOS (Bos taurus, UniProt P29473); experiment: eNOS Dimerization Inhibition assay (Griess, Hek293 cells expressing bovine eNOS); format: cell-based
T3 construct: expressed in transfected cells; host or cells: HEK293 (stably transduced)
T3 sequence (P29473 1-1205): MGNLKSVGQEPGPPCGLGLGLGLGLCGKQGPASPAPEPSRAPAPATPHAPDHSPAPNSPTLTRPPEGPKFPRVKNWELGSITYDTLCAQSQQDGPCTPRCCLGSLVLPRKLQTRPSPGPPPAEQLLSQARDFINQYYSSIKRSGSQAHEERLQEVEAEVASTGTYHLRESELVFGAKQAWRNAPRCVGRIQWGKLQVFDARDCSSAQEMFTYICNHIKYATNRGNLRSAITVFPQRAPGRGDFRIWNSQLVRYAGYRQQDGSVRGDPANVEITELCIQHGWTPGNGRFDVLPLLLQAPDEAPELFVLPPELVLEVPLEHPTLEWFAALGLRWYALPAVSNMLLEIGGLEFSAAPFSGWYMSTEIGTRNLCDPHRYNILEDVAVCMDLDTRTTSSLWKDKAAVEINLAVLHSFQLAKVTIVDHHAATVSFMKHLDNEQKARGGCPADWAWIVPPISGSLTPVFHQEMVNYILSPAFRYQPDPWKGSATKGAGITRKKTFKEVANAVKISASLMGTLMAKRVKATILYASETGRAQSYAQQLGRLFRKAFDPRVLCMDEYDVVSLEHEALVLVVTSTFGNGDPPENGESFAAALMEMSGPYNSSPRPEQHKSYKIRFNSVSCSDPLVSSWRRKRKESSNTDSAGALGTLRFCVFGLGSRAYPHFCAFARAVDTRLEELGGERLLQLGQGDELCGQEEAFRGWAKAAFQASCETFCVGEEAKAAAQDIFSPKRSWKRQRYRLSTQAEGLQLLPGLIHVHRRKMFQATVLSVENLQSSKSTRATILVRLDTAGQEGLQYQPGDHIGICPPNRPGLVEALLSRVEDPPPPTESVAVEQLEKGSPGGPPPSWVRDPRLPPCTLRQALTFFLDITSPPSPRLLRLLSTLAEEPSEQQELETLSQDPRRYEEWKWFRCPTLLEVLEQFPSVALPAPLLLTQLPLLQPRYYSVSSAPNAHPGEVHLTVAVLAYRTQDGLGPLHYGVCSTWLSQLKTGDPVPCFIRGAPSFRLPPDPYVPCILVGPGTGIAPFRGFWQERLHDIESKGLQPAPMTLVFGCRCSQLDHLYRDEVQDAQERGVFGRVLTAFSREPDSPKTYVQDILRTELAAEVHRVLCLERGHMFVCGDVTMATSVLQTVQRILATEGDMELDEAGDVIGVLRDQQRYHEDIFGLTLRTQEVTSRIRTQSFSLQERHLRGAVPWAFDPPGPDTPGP
Procedure: as §1
eNOS Dimerization Inhibition assay. The nNOS protocol was followed substituting Hek293 cells stably transduced to express bovine eNOS

T1 sequence (P29476 whole entry): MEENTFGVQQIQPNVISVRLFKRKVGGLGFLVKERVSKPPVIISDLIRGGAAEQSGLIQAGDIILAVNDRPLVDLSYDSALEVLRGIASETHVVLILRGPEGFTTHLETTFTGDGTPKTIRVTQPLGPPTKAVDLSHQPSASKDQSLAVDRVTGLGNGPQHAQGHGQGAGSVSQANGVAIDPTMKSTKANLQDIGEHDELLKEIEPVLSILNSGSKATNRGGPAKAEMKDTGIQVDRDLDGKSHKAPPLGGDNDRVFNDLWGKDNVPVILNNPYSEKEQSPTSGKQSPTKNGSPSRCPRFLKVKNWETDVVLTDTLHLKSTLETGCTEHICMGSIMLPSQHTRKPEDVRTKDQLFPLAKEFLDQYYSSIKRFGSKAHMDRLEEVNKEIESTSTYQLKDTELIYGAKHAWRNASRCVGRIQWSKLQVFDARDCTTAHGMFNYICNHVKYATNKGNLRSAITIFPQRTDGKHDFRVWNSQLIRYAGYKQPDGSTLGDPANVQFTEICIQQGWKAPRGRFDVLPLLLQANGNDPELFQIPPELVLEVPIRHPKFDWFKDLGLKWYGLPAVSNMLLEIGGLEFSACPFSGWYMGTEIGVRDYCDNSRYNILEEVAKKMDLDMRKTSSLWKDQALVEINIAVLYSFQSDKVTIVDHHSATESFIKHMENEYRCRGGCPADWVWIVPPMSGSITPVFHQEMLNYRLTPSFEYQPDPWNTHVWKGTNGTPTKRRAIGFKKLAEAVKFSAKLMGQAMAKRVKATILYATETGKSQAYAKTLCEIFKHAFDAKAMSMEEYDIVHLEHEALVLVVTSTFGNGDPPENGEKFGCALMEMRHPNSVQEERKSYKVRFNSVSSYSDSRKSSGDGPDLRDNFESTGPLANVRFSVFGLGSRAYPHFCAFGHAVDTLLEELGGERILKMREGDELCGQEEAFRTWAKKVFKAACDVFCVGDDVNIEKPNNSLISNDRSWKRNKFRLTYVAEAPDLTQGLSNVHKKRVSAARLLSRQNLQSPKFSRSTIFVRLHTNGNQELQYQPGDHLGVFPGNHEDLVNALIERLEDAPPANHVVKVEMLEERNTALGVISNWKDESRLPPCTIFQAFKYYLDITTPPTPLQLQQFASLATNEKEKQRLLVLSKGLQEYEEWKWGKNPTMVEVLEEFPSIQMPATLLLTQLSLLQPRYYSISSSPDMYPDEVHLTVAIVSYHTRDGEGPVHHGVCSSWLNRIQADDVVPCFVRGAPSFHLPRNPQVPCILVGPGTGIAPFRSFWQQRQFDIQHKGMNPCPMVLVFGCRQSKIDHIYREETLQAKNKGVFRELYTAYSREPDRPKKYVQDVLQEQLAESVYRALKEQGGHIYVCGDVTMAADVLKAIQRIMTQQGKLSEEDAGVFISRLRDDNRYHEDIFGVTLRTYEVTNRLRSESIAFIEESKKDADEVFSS

Row | Compound | IC50 (nNOS) | IC50 (iNOS) | IC50 (eNOS)
1 | O=C(C[C@H]1CCCN1c1ccnc(-n2ccnc2)n1)NCc1ccc2c(c1)OCO2 [Compound 1, (R)-2-[2-(1H-imidazol-1-yl)-4-pyrimidylpyrrolidin-2-yl)-N-(benzo[d][1,3]dioxo-5-ylmethyl)acetamide] | 0.2 µM | 0.1 µM | 18 µM
2 | COc1ccc(CNC(=O)C[C@H]2CCCN2c2ccnc(-n3ccnc3)n2)cc1OC [Compound 2, (R)-2-[2-(1H-imidazol-1-yl)-4-pyrimidylpyrrolidin-2-yl]-N-(3,4-dimethoxybenzyl) acetamide] | 0.14 µM | 0.62 µM | 21.1 µM
3 | CCOc1cc(CNC(=O)C[C@H]2CCCN2c2ccnc(-n3ccnc3)n2)ccc1OC [Compound 3, (R)-2-[2-(1H-imidazol-1-yl)-4-pyrimidylpyrrolidin-2-yl]-N-(3-ethoxy-4-methoxybenzy)acetamide] | 6.7 µM | 3.7 µM | 57 µM
4 | (R)-2-[2-(1H-imidazol-1-yl)-4-pyrimidylpyrrolidin-2-yl]-N-(3-benzyl-4-methoxybenzyl)acetamide [Compound 5] | 14.1 µM | 6 µM | 55 µM
5 | (R)-2-[2-(1H-imidazol-1-yl)-4-pyrimidylpyrrolidin-2-yl]-N-(4-methoxy-3-n-propylbenzyl)acetamide [Compound 4] | 7.4 µM | 4.5 µM | 86 µM
